In patent publication US20260356830A1, “COMPOUNDS FOR MODULATING RET PROTEIN” (Bristol-Myers Squibb Company, priority 2022, published 2026):

Biological target: T1, CCDC6-RET (Homo sapiens, UniProt P07949+Q16204+Q96SW2)
T1 construct: CCDC6 (natural N-terminal fusion partner, UniProt Q16204); endogenous in cells; host or cells: TPC-1 (parental, papillary thyroid carcinoma)
Test: Cellular RET degradation, AlphaLISA, TPC-1 cell line
Format: cell-based
Settings: for Dmax: TPC1, human, 24 h, read-out: Cell Density TPC-1/CCDC6-RET Ymax %; for DC50: read-out: Cell Density TPC-1/CCDC6-RET DC50, half-maximal degradation concentration, TPC-1 (CCDC6-RET), 24 hrs
Method in brief: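 Luminescent AlphaLISA read of RET abundance in lysates after 24 h compound exposure (37 °C, 2% FBS DMEM) of CCDC6-RET-bearing TPC-1 cells. % degradation relative to DMSO (high) and media (low) controls, fitted to 4-parameter logistic curve for DC50 and Ymax.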

T1 sequence (Q16204+P07949 fused): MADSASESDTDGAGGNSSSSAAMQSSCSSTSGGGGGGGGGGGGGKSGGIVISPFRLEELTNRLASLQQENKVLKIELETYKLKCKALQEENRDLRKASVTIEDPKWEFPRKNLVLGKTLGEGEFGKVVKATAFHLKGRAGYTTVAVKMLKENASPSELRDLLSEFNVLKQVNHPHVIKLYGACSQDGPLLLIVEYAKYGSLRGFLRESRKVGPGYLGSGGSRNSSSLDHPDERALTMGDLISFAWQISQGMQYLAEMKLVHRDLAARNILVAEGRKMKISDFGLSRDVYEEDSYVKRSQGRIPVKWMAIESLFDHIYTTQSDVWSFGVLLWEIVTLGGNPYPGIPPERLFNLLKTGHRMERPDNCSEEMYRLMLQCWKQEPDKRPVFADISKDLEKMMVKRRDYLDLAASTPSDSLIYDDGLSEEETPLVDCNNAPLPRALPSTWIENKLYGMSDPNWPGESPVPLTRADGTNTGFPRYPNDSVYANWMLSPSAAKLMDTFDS
T1 sequence (Q96SW2 whole entry, the tested form may be a part): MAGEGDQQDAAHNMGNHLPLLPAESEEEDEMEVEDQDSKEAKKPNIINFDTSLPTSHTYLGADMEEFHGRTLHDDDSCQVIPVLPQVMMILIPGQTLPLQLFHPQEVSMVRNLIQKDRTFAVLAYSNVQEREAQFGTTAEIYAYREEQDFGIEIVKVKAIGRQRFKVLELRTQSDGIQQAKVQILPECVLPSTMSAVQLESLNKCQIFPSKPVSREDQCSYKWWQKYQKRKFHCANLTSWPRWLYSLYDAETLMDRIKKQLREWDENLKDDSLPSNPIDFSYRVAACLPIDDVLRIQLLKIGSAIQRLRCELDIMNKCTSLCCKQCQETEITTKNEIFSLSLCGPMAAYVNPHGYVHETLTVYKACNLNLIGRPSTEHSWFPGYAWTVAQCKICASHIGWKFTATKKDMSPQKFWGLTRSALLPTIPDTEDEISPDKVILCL
T1 sequence (Q16531 whole entry partner, the tested form may be a part): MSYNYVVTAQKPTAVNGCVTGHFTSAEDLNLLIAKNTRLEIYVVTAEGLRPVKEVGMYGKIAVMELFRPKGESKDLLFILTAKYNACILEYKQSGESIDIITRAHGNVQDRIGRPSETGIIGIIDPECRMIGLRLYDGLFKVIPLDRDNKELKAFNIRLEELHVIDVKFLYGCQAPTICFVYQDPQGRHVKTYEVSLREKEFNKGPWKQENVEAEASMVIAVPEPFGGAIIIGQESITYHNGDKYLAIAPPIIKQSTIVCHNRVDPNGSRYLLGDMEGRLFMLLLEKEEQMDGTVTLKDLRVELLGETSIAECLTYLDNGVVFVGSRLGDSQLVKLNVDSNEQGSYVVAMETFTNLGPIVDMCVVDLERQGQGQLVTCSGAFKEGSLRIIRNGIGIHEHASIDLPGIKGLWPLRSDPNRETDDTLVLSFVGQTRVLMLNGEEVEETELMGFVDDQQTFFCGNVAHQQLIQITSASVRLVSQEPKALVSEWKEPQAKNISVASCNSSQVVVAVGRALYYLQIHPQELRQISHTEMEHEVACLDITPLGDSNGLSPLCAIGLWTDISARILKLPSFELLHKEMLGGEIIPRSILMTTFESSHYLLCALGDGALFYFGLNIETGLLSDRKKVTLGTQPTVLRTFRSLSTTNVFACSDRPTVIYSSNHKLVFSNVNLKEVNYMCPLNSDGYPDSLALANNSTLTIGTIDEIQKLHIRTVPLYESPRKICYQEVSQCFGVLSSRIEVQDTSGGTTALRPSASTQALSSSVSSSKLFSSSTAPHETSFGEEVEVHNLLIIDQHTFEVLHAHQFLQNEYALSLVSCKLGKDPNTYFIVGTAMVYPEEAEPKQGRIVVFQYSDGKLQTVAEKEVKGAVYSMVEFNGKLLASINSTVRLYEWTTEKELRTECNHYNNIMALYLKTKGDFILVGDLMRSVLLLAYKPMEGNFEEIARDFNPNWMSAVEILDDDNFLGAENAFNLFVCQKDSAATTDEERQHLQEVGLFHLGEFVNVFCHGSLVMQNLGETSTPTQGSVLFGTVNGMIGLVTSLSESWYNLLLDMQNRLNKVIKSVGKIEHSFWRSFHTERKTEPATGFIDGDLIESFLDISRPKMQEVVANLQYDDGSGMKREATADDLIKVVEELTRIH

SMILES | Dmax | DC50
CCOc1cc(-c2ccc(N3CCC(CN4CCN(CCC(=O)N5CCC(c6ccc7c(c6)C(=O)N(C6CCC(=O)NC6=O)C7=O)CC5)CC4)(NC(=O)c4cc(F)ccc4F)CC3)nc2)c2c(C#N)cnn2c1 (centres unmarked) [Example 117, N-[1-(5-{3-cyano-6-ethoxypyrazolo[1,5-a]pyridin-4-yl}pyridin-2-yl)-4-{[4-(3-{4-[2-(2,6-dioxopiperidin-3-yl)-1,3-dioxo-2,3-dihydro-1H-isoindol-5-yl]piperidin-1-yl}-3-oxopropyl)piperazin-1-yl]methyl}piperidin-4-yl]-2,5-difluorobenzamide] | > 90% | 2 to 10 nM
CCOc1cc(-c2ccc(N3CCC(CN4CCN(C(=O)CCN5CCC(Oc6ccc7c(c6)CN(C6CCC(=O)NC6=O)C7=O)CC5)CC4)(NC(=O)c4cc(F)ccc4F)CC3)nc2)c2c(C#N)cnn2c1 (centres unmarked) [Example 118, N-[1-(5-{3-cyano-6-ethoxypyrazolo[1,5-a]pyridin-4-yl}pyridin-2-yl)-4-({4-[3-(4-{[2-(2,6-dioxopiperidin-3-yl)-1-oxo-2,3-dihydro-1H-isoindol-5-yl]oxy}piperidin-1-yl)propanoyl]piperazin-1-yl}methyl)piperidin-4-yl]-2,5-difluorobenzamide] | 60 to 90% | 2 to 10 nM
CCOc1cc(-c2ccc(N3CCC(CN4CCN(C(=O)CCN5CC(c6ccc7c(c6)CN(C6CCC(=O)NC6=O)C7=O)C5)CC4)(NC(=O)c4cc(F)ccc4F)CC3)nc2)c2c(C#N)cnn2c1 (centres unmarked) [Example 119, N-[1-(5-{3-cyano-6-ethoxypyrazolo[1,5-a]pyridin-4-yl}pyridin-2-yl)-4-{[4-(3-{3-[2-(2,6-dioxopiperidin-3-yl)-1-oxo-2,3-dihydro-1H-isoindol-5-yl]azetidin-1-yl}propanoyl)piperazin-1-yl]methyl}piperidin-4-yl]-2,5-difluorobenzamide] | > 90% | 2 to 10 nM
CCOc1cc(-c2ccc(N3CCC(CN4CCN(C(=O)CCN5CC(Oc6ccc7c(c6)CN(C6CCC(=O)NC6=O)C7=O)C5)CC4)(NC(=O)c4cc(F)ccc4F)CC3)nc2)c2c(C#N)cnn2c1 (centres unmarked) [Example 120, N-[1-(5-{3-cyano-6-ethoxypyrazolo[1,5-a]pyridin-4-yl}pyridin-2-yl)-4-({4-[3-(3-{[2-(2,6-dioxopiperidin-3-yl)-1-oxo-2,3-dihydro-1H-isoindol-5-yl]oxy}azetidin-1-yl)propanoyl]piperazin-1-yl}methyl)piperidin-4-yl]-2,5-difluorobenzamide] | > 90% | < 2 nM
CCOc1cc(-c2ccc(N3CCC(CN4CCC5(CCC(CC(=O)N6CCC(c7ccc8c(c7)CN(C7CCC(=O)NC7=O)C8=O)CC6)CC5)CC4)(NC(=O)c4cc(F)ccc4F)CC3)nc2)c2c(C#N)cnn2c1 (centres unmarked) [Example 122, N-[1-(5-{3-cyano-6-ethoxypyrazolo[1,5-a]pyridin-4-yl}pyridin-2-yl)-4-{[9-(2-{4-[2-(2,6-dioxopiperidin-3-yl)-1-oxo-2,3-dihydro-1H-isoindol-5-yl]piperidin-1-yl}-2-oxoethyl)-3-azaspiro[5.5]undecan-3-yl]methyl}piperidin-4-yl]-2,5-difluorobenzamide] | > 90% | 2 to 10 nM
CCOc1cc(-c2ccc(N3CCC(CN4CCC5(CCC(CC(=O)N6CCN(c7ccc8c(c7)C(=O)N(C7CCC(=O)NC7=O)C8)CC6)CC5)CC4)(NC(=O)c4cc(F)ccc4F)CC3)nc2)c2c(C#N)cnn2c1 (centres unmarked) [Example 123, N-[1-(5-{3-cyano-6-ethoxypyrazolo[1,5-a]pyridin-4-yl}pyridin-2-yl)-4-{[9-(2-{4-[2-(2,6-dioxopiperidin-3-yl)-3-oxo-2,3-dihydro-1H-isoindol-5-yl]piperazin-1-yl}-2-oxoethyl)-3-azaspiro[5.5]undecan-3-yl]methyl}piperidin-4-yl]-2,5-difluorobenzamide] | > 90% | 2 to 10 nM
CCOc1cc(-c2ccc(N3CCC(CN4CCC5(CCC(CC(=O)N6CCN(c7ccc8c(c7)CN(C7CCC(=O)NC7=O)C8=O)CC6)CC5)CC4)(NC(=O)c4cc(F)ccc4F)CC3)nc2)c2c(C#N)cnn2c1 (centres unmarked) [Example 124, N-[1-(5-{3-cyano-6-ethoxypyrazolo[1,5-a]pyridin-4-yl}pyridin-2-yl)-4-{[9-(2-{4-[2-(2,6-dioxopiperidin-3-yl)-1-oxo-2,3-dihydro-1H-isoindol-5-yl]piperazin-1-yl}-2-oxoethyl)-3-azaspiro[5.5]undecan-3-yl]methyl}piperidin-4-yl]-2,5-difluorobenzamide] | > 90% | < 2 nM
CCOc1cc(-c2ccc(N3CCC(CN4CCN(C(=O)CCCCCCN5CCN(c6ccc7c(c6)CN(C6CCC(=O)NC6=O)C7=O)CC5)CC4)CC3)nc2)c2c(C#N)cnn2c1 (centres unmarked) [Example 125, 4-[6-(4-{[4-(7-{4-[2-(2,6-dioxopiperidin-3-yl)-1-oxo-2,3-dihydro-1H-isoindol-5-yl]piperazin-1-yl}heptanoyl)piperazin-1-yl]methyl}piperidin-1-yl)pyridin-3-yl]-6-ethoxypyrazolo[1,5-a]pyridine-3-carbonitrile] | > 90% | 10 to 100 nM
CCOc1cc(-c2ccc(N3CCC(CN4CCN(C(=O)CCN5CCC(c6ccc7c(c6)C(=O)N(C6CCC(=O)NC6=O)C7)CC5)CC4)CC3)nc2)c2c(C#N)cnn2c1 (centres unmarked) [Example 126, 4-[6-(4-{[4-(3-{4-[2-(2,6-dioxopiperidin-3-yl)-3-oxo-2,3-dihydro-1H-isoindol-5-yl]piperidin-1-yl}propanoyl)piperazin-1-yl]methyl}piperidin-1-yl)pyridin-3-yl]-6-ethoxypyrazolo[1,5-a]pyridine-3-carbonitrile] | 60 to 90% | 100 to 2000 nM
CCOc1cc(-c2ccc(N3CCC(C)(CN4CCN(C(=O)CCCCCCN5CCN(c6ccc7c(c6)CN(C6CCC(=O)NC6=O)C7=O)CC5)CC4)CC3)nc2)c2c(C#N)cnn2c1 (centres unmarked) [Example 128, 4-[6-(4-{[4-(7-{4-[2-(2,6-dioxopiperidin-3-yl)-1-oxo-2,3-dihydro-1H-isoindol-5-yl]piperazin-1-yl}heptanoyl)piperazin-1-yl]methyl}-4-methylpiperidin-1-yl)pyridin-3-yl]-6-ethoxypyrazolo[1,5-a]pyridine-3-carbonitrile] | 60 to 90% | 100 to 2000 nM
CCOc1cc(-c2ccc(N3CCC(C)(CN4CCN(C(=O)CCN5CCC(c6ccc7c(c6)CN(C6CCC(=O)NC6=O)C7=O)CC5)CC4)CC3)nc2)c2c(C#N)cnn2c1 (centres unmarked) [Example 129, 4-[6-(4-{[4-(3-{4-[2-(2,6-dioxopiperidin-3-yl)-1-oxo-2,3-dihydro-1H-isoindol-5-yl]piperidin-1-yl}propanoyl)piperazin-1-yl]methyl}-4-methylpiperidin-1-yl)pyridin-3-yl]-6-ethoxypyrazolo[1,5-a]pyridine-3-carbonitrile] | 60 to 90% | 100 to 2000 nM
CCOc1cc(-c2ccc(N3CCC(CN(C)C(=O)CCCCCCN4CCN(c5ccc6c(c5)CN(C5CCC(=O)NC5=O)C6=O)CC4)(NC(=O)c4cc(F)ccc4F)CC3)nc2)c2c(C#N)cnn2c1 (centres unmarked) [Example 137, N-[1-(5-{3-cyano-6-ethoxypyrazolo[1,5-a]pyridin-4-yl}pyridin-2-yl)-4-[(7-{4-[2-(2,6-dioxopiperidin-3-yl)-1-oxo-2,3-dihydro-1H-isoindol-5-yl]piperazin-1-yl}-N-methylheptanamido)methyl]piperidin-4-yl]-2,5-difluorobenzamide] | > 90% | 2 to 10 nM
CCOc1cc(-c2ccc(N3CCC(CN(C)C(=O)CCCCN4CCC(c5ccc6c(c5)CN(C5CCC(=O)NC5=O)C6=O)CC4)(NC(=O)c4cc(F)ccc4F)CC3)nc2)c2c(C#N)cnn2c1 (centres unmarked) [Example 139, N-[1-(5-{3-cyano-6-ethoxypyrazolo[1,5-a]pyridin-4-yl}pyridin-2-yl)-4-[(5-{4-[2-(2,6-dioxopiperidin-3-yl)-1-oxo-2,3-dihydro-1H-isoindol-5-yl]piperidin-1-yl}-N-methylpentanamido)methyl]piperidin-4-yl]-2,5-difluorobenzamide] | > 90% | 10 to 100 nM
CCOc1cc(-c2ccc(N3CCC(CN(C)C(=O)CCCCCCN4CCC(c5ccc6c(c5)CN(C5CCC(=O)NC5=O)C6=O)CC4)(NC(=O)c4cc(F)ccc4F)CC3)nc2)c2c(C#N)cnn2c1 (centres unmarked) [Example 140, N-[1-(5-{3-cyano-6-ethoxypyrazolo[1,5-a]pyridin-4-yl}pyridin-2-yl)-4-[(7-{4-[2-(2,6-dioxopiperidin-3-yl)-1-oxo-2,3-dihydro-1H-isoindol-5-yl]piperidin-1-yl}-N-methylheptanamido)methyl]piperidin-4-yl]-2,5-difluorobenzamide] | > 90% | 2 to 10 nM
CCOc1cc(-c2ccc(N3CCC(CN(C)C(=O)CCCCCCN4CCN(c5ccc6c(c5)C(=O)N(C5CCC(=O)NC5=O)C6)CC4)(NC(=O)c4cc(F)ccc4F)CC3)nc2)c2c(C#N)cnn2c1 (centres unmarked) [Example 143, N-[1-(5-{3-cyano-6-ethoxypyrazolo[1,5-a]pyridin-4-yl}pyridin-2-yl)-4-[(7-{4-[2-(2,6-dioxopiperidin-3-yl)-3-oxo-2,3-dihydro-1H-isoindol-5-yl]piperazin-1-yl}-N-methylheptanamido)methyl]piperidin-4-yl]-2,5-difluorobenzamide] | > 90% | 2 to 10 nM
CCOc1cc(-c2ccc(N3CCC(CN(C)C(=O)CCCCN4CCC(c5ccc6c(c5)C(=O)N(C5CCC(=O)NC5=O)C6)CC4)(NC(=O)c4cc(F)ccc4F)CC3)nc2)c2c(C#N)cnn2c1 (centres unmarked) [Example 145, N-[1-(5-{3-cyano-6-ethoxypyrazolo[1,5-a]pyridin-4-yl}pyridin-2-yl)-4-[(5-{4-[2-(2,6-dioxopiperidin-3-yl)-3-oxo-2,3-dihydro-1H-isoindol-5-yl]piperidin-1-yl}-N-methylpentanamido)methyl]piperidin-4-yl]-2,5-difluorobenzamide] | 60 to 90% | 2 to 10 nM
